Tests used:
Assay type in all cases: biochemical
CDK1/CycB act.GST-HIS = CDK1/CycB act.GST-HIS (Homo sapiens, UniProt P06493); test: General kinase assay: CDK1/CycB; conditions: concentration 10 μM; read-out: Inhibitory effect on Target CDK1/CycB act.GST-HIS
Description: (§1) General Assay Protocol for all Kinases [[[…]]] [[[…]]] Reaction Buffer: Final Assay Concentrations: [[[…]]] Pipetting Sequence: • 1) Add 8 μl 50 μM MBP in Reaction Buffer to each well of Assay Plate • 2) Add 10 μl 500 mM EDTA in H2O to C- wells • 3) Add 8 μl 62.5 μCi/ml Adenosine 5'-[γ-^33P]triphosphate+5 μM ATP in Reaction Buffer to each well • 4) Add 8 μl 5 fold concentrated inhibitor in 5% DMSO in Reaction Buffer to each well except to C- and C+ wells • 5) Add 8 μl 5% DMSO in Reaction Buffer to C- and C+ wells • 6) Add 8 μl 5 fold concentrated kinase in Reaction Buffer to each well • 7) Incubate 1 hr at room temperature • 8) Add 10 μl 50 mM EDTA in H2O to each well except to C- wells • 9) Prepare MAPH plates by adding 200 μl 0.75% H3PO4 to each well • 10) Exhaust 0.75% H3PO4 using Millipore vacuum station • 11) Add 60 μl 0.75% H3PO4 to each well of MAPH Filter Plate • 12) Transfer 30 μl sample per well from Assay Plate to corresponding well of MAPH Filter Plate • 13) Incubate 30 min at room temperature • 14) Wash each well of MAPH Filter Plates 3× with 200 μl 0.75% H3PO4 using Millipore vacuum station • 15) Add 20 μl Szintilation Liquid to each well of MAPH Filter Plate • 16) Seal MAPH Filter Plate • 17) Store MAPH Filter Plate 30 min in darkness • 18) Quantify radioactivity

Kit human GST = target: T1, Kit human GST (Homo sapiens, UniProt P10721); test: General kinase assay: Kit; conditions: concentration 10 μM; read-out: Inhibitory effect on Target Kit human GST
T1 construct: GST
Description: as §1

PDGFRbeta GST = target: T2, PDGFRbeta GST (Homo sapiens, UniProt P09619); test: General kinase assay: PDGFRbeta; conditions: concentration 10 μM; read-out: Inhibitory effect on Target PDGFRbeta GST
T2 construct: GST
Description: as §1

SRPK1 GST = target: T3, SRPK1 GST (Homo sapiens, UniProt Q96SB4); test: General kinase assay: SRPK1; conditions: concentration 10 μM; read-out: Inhibitory effect on Target SRPK1 GST
T3 construct: GST
Description: as §1

T1 sequence (P10721 26-976): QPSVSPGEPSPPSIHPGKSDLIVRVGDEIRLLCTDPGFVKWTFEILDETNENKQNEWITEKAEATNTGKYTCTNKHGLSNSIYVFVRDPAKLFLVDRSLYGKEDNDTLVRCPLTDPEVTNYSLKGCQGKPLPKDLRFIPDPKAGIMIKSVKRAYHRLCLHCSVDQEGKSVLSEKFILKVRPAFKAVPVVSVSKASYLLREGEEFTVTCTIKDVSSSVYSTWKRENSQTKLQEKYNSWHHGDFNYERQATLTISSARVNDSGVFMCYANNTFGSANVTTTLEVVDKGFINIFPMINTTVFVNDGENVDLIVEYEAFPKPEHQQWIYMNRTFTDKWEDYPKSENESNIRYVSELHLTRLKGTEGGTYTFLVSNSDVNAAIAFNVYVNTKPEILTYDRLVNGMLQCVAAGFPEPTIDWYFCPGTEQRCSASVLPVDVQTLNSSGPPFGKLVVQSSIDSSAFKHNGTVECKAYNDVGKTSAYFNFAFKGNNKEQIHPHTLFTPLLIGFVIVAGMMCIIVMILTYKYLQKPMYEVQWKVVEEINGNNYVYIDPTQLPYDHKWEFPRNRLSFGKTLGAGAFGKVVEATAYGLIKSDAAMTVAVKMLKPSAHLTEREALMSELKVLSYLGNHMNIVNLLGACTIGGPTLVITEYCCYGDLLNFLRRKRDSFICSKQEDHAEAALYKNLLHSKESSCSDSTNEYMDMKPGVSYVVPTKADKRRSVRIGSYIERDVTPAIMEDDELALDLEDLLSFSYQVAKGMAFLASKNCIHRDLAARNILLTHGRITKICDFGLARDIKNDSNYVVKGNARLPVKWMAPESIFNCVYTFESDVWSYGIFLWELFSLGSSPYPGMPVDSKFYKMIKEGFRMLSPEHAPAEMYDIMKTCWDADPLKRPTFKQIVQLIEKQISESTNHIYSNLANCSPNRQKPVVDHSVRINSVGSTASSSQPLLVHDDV
Sequence of CDK1/CycB act.GST-HIS (P06493 whole entry, species assumed): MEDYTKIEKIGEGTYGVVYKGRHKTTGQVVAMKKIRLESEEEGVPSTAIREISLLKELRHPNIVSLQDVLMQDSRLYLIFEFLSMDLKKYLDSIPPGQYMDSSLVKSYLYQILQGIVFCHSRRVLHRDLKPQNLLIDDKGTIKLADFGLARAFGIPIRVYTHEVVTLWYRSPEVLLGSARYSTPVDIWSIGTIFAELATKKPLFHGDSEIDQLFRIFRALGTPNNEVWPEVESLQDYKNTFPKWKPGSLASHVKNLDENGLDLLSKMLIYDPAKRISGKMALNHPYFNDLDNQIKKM
Sequence of CDK1/CycB act.GST-HIS (P14635 whole entry partner, species assumed): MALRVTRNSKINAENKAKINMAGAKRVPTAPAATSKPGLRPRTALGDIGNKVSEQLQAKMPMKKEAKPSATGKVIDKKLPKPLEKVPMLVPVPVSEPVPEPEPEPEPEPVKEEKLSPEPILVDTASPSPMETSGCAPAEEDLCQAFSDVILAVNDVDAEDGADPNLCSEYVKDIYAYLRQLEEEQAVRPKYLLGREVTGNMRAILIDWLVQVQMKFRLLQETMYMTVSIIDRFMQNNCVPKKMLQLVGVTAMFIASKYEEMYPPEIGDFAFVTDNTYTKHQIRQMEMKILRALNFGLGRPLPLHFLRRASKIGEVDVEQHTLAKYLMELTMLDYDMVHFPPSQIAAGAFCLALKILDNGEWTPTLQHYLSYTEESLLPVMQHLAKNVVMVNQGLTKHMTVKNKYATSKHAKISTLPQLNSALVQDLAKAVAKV
T2 sequence (P09619 33-1106): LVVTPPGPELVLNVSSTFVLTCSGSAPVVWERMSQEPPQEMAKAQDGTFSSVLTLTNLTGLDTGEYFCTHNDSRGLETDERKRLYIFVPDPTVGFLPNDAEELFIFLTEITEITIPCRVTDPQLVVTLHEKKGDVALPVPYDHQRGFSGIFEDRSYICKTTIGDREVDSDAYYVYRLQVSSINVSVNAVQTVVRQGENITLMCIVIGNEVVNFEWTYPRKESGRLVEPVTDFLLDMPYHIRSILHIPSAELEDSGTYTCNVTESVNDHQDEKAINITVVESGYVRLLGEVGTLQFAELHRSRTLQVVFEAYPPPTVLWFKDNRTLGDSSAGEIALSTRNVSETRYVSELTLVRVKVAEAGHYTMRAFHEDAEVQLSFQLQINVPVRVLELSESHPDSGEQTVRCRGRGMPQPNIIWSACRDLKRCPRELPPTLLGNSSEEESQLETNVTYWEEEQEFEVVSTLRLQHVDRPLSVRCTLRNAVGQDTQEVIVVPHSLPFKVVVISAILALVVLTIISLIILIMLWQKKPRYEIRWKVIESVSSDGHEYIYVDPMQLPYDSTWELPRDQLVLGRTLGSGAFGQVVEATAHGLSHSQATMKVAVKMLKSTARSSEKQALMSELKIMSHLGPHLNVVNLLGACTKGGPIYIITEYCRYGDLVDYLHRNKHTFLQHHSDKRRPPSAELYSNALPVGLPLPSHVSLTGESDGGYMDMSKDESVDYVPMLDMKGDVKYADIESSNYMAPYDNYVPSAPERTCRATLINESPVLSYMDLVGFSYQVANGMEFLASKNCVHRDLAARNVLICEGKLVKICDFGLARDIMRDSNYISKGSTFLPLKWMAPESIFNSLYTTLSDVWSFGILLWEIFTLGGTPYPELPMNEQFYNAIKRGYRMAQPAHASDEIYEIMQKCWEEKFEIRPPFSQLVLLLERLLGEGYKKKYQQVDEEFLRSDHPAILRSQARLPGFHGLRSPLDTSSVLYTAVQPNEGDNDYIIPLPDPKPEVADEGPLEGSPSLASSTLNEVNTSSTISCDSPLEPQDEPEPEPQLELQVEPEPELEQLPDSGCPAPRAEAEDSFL
T3 sequence (Q96SB4 whole entry): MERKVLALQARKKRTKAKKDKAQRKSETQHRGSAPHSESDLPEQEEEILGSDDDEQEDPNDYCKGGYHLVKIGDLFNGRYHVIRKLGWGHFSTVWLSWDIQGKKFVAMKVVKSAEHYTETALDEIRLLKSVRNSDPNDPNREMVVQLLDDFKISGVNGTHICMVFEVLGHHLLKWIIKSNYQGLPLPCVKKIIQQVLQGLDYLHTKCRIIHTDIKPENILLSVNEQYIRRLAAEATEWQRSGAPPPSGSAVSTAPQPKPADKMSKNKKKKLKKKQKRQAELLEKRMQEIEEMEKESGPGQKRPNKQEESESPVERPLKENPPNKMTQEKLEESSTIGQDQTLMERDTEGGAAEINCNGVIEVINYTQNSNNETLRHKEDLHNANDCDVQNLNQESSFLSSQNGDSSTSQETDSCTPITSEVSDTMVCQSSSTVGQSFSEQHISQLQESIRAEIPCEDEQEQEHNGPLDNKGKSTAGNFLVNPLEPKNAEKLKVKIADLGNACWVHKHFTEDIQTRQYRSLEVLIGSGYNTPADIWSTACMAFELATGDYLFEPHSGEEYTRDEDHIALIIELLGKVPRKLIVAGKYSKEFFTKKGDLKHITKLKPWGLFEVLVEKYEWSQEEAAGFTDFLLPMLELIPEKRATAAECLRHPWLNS

inhibition at 10 µM (CDK1/CycB act.GST-HIS): > 50% | inhibition at 10 µM (Kit human GST): > 50% | inhibition at 10 µM (PDGFRbeta GST): > 50% | inhibition at 10 µM (SRPK1 GST): > 50%
Structure (SMILES): NC(=O)c1c(NC(=O)Nc2ccc(F)cc2)sc2c1CCOC2 [Compound B13, 2-[3-(4-Fluoro-phenyl)-ureido]-4,7-dihydro-5H-thieno[2,3-c]pyran-3-carboxylic acid amide]
